# In PubChem BioAssay AID1949 (Southern Research Institute, 2009):
# Inconclusive results are not listed. The source made the active and inactive calls. No rule for the calls is given here.
# Test system: M. tuberculosis H37Rv growth inhibition
# Assay: Mycobacterium tuberculosis H37Rv growth inhibition, cell based, confirmatory dose response (AID 1949);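 also: bacteria grown 7 days with compound before Alamar blue readout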
row,Structure (SMILES),IC50
1,COc1ccc(C(=O)CCN2CCCC(C)C2)cc1 (centres undefined),35 µg/mL
2,CN1CCN(c2ccc(NC(=O)c3cccc(OCc4ccccc4)c3)cc2)CC1,21.4 µg/mL
3,COc1ccc(C)cc1NC(=O)c1ccc(CN2CCC(Cc3ccccc3)CC2)cc1,3.36 µg/mL
4,CCOC(=O)C(C)Oc1ccc2c(-c3ccc(OC)cc3)cc(=O)oc2c1 (centres undefined),1.35 µg/mL
5,CCN(CC)CCNc1nc(-c2cccc(Cl)c2)nc2ccccc12,46 µg/mL
6,O=C(COc1ccc(C(=O)NCc2ccccc2)cc1)OC1CCCCC1,0.73 µg/mL
7,COC(=O)Cc1c(C)c2ccc(OCC(=O)Nc3cc(C)cc(C)c3)cc2oc1=O,0.2 µg/mL
8,COc1ccc(Nc2nc(-c3ccccn3)cs2)c(OC)c1,< 0.1 µg/mL
9,CCCNc1nc(Nc2ccc(C)cc2)nc(N2CCOCC2)n1,7.71 µg/mL
10,CCOC(=O)COc1ccc2oc(C)c(C(=O)OC)c2c1,6.25 µg/mL
11,Cc1cccc(Nc2cc(Cl)c3nonc3c2[N+](=O)[O-])c1C,1.28 µg/mL
12,CCN1CCN(c2ccc(NC(=O)c3cc(Br)cc(C)c3OC)cc2Cl)CC1,4.8 µg/mL
13,O=C(CSc1nnc(-c2ccncc2)o1)Nc1ccc(Cl)cn1,5.59 µg/mL
14,CCN(CC)c1ccc(NC(=S)NCc2ccc(Cl)cc2)cc1,3.18 µg/mL
15,N#CCCN(Cc1ccccc1)C(=S)NC(=O)c1ccccc1,2.51 µg/mL
16,Cc1cccc(Nc2nc(NCc3ccco3)c3ccccc3n2)c1,1.86 µg/mL
17,CCOC(=O)c1ccc(NC(=S)Nc2ccc(Oc3ccccc3)cc2)cc1,0.39 µg/mL
18,COC(=O)C1=C(C)N(c2cc(Cl)cc(Cl)c2)C(=O)C1,6.04 µg/mL
19,O=C(/C=C\c1ccccc1)Nc1cccc(-c2nc3ccccc3[nH]2)c1,7.66 µg/mL
20,CN1CCN(c2ccc(C(=O)Nc3cccc(Cl)c3)cc2[N+](=O)[O-])CC1,4.41 µg/mL

row,Structure (SMILES),IC50
1,CCc1ccc(-c2nn(-c3ccccc3)cc2CO)cc1,5.36 µg/mL
2,Clc1cc(Br)ccc1OCCCn1ccnc1,15 µg/mL
3,CCC(C)c1ccc(OCC(=O)Nc2ccc(OC)c([N+](=O)[O-])c2)cc1 (centres undefined),1.61 µg/mL
4,COc1cc(/C=C2\Oc3ccccc3C2O)cc(Cl)c1OC (centres undefined),3.04 µg/mL
5,CC(CCc1ccccc1)NC(=O)c1ccc(Cl)cc1[N+](=O)[O-] (centres undefined),3.7 µg/mL
6,S=C(NCCc1ccc(Cl)cc1)Nc1ccc(Nc2ccccc2)cc1,2.09 µg/mL
7,CC(C)(C)c1ccc(C(=O)Nc2ccc(S(=O)(=O)Nc3nccs3)cc2)cc1Br,1.19 µg/mL
8,O=C(c1ccc(Cl)cc1)c1ccc(OCC(O)CN2CCN(Cc3ccccc3)CC2)cc1 (centres undefined),2.75 µg/mL
9,O=C(Nc1ccc2c(c1)CCC2)c1ccc(Br)s1,1.45 µg/mL
10,COc1ccc(Cc2nnc(SCC(=O)NCCc3ccccc3)o2)cc1,< 0.1 µg/mL
11,COc1ccccc1NC(=O)c1cnc(SC)nc1,3.97 µg/mL
12,COc1ccccc1NC(=O)CSc1nc2cc3ccccc3cc2[nH]1,3.08 µg/mL
13,CCn1c2ccc(F)cc2c2nc3ccccc3nc21,6.92 µg/mL
14,CCOC(=O)c1c(NC(=S)N2CCN(C(=O)C3CCCO3)CC2)sc(C)c1-c1ccccc1 (centres undefined),6.67 µg/mL
15,c1ccc(CNc2cc(-n3cccn3)nc(-c3ccccc3)n2)cc1,> 50 µg/mL (inactive)
16,Brc1ccc(Nc2nc(-c3ccccn3)cs2)cc1,0.13 µg/mL
17,Oc1ccccc1-c1n[nH]c(/C=C/c2ccc(Br)cc2)n1,3.27 µg/mL
18,OCc1cn(-c2ccccc2)nc1-c1ccc2ccccc2c1,4.25 µg/mL
19,Cc1ccc(Cl)cc1N1CCN(C(=O)C2CCN(C(=O)c3ccc(C(C)(C)C)cc3)CC2)CC1,3.38 µg/mL
20,OCc1nc2ccccc2n1CC(O)COc1ccc(OCc2ccccc2)cc1 (centres undefined),4.83 µg/mL

row,Structure (SMILES),IC50
1,N#Cc1c(C(F)(F)F)cc(-c2cccs2)nc1SCC(O)CN1CCSCC1 (centres undefined),10.9 µg/mL
2,O=C(Oc1c(Cl)cc(Cl)c2cccnc12)c1cccc([N+](=O)[O-])c1,6.13 µg/mL
3,CCOc1cc(CNCCO)ccc1OCc1ccc(Cl)cc1Cl,6.03 µg/mL
4,O=C(Oc1ccc(Cl)cc1)c1ccc(S(=O)(=O)c2ccc(Cl)cc2)cc1,1.02 µg/mL
5,COc1ccc(CCn2cnc3oc(-c4ccccc4)c(-c4ccccc4)c3c2=N)cc1OC,> 50 µg/mL (inactive)
6,COc1cc(CNc2ccc(F)c(Cl)c2)ccc1OCC(=O)NC1CCCCC1,5.53 µg/mL
7,COc1ccc(F)cc1CN1CCN(c2ncnc3scc(-c4ccc(F)cc4)c23)CC1,> 50 µg/mL (inactive)
8,O=C(Nc1ccc2c(c1)OCCO2)C(Cl)Cl,6.65 µg/mL
9,Cc1ccc(-c2csc3nc4c5ccccc5c(NCCCN5CCOCC5)nn4c(=O)c23)cc1,> 50 µg/mL (inactive)
10,Cc1[nH]n(-c2ccccc2)c(=S)c1C=Nc1ccccc1O,2.35 µg/mL
11,COC(=O)C(Oc1ccc2c(c1)oc(=O)c1cc(OC)ccc12)c1ccccc1 (centres undefined),1.32 µg/mL
12,Cc1ccc(-c2nc(Nc3ccc(O)cc3)c3ccccc3n2)cc1,2.14 µg/mL
13,CCc1ccc(C2C3=C(CC(C)(C)CC3=O)NC3=C2C(=O)c2ccccc23)cc1 (centres undefined),4.44 µg/mL
14,CCOC(=O)c1ccccc1OC(=O)c1c(F)c(F)c(F)c(F)c1F,9.77 µg/mL
15,CC(=O)Oc1c(C(=O)c2ccccc2)sc2ccccc12,0.71 µg/mL
16,Cc1ccc(-c2csc3ncn(C(C)C(=O)OCc4ccccc4Cl)c(=O)c23)cc1 (centres undefined),0.74 µg/mL
17,CCCCc1ccc(NC(=O)CSCc2ccc(OC)cc2)cc1,12.9 µg/mL
18,COc1ccc(-c2cc(-c3ccccc3)nc(-n3nc(C)cc3C)n2)cc1,4.22 µg/mL
19,Cc1cc(C)nc(Nc2ccc(N3CCCC3)cc2)n1,9.69 µg/mL
